In US11142529B2 (priority 2013, dated 2021):
Entries after “also recorded” stand apart in the source; their conditions may differ. Like-named read-outs stand apart in the source and are kept apart here.

Columns and labels:
[1] = test system: aged-impaired (AI) rats; assay: Radial Arm Maze (RAM) behavioral task, two-hour delay (Example 107A); format: in vivo, rat; settings: 3 mg/kg ip
Protocol: The effects of methyl 3,5-diphenylpyridazine-4-carboxylate on the in vivo spatial memory retention of aged-impaired (AI) rats were assessed in a Radial Arm Maze (RAM) behavioral task using vehicle control and four different dosage levels of methyl 3,5-diphenylpyridazine-4-carboxylate (0.1 mg/kg, 0.3 mg/kg, 1 mg/kg and 3 mg/kg, ip). RAM behavioral tasks were performed on eight AI rats. All five treatment conditions (vehicle and four dosage levels) were tested on all eight rats.
The RAM apparatus used consisted of eight equidistantly-spaced arms. An elevated maze arm (7 cm width×75 cm length) projected from each facet of an octagonal center platform (30 cm diameter, 51.5 cm height). Clear side walls on the arms were 10 cm high and were angled at […] to form a trough. A food well (4 cm diameter, 2 cm deep) was located at the distal end of each arm. Froot Loops™ (Kellogg Company) were used as rewards. Blocks constructed of Plexiglas™ (30 cm height×12 cm width) could be positioned to prevent entry to any arm. Numerous extra maze cues surrounding the apparatus were also provided.
The AI rats were initially subjected to a pre-training test (Chappell et al. Neuropharmacology 37: 481-487, 1998). […]

[2] = biological target: T1, GABAAα5 receptor (Rattus norvegicus, UniProt P18508+P19969); assay: GABAA α5 receptor occupancy with Ro 15-4513 tracer (Example 107B); format: in vivo, Long Evans rats
T1 construct: occupancy in the hippocampus (a region of high GABAAα5 receptor density); from tissue; host or cells: rat brain in vivo; hippocampus versus cerebellum
Text: (§1) Food and water were available ad libitum.

[3] = format: in vivo, Long Evans rats; settings: i.v.
Protocol: as §1
For plasma exposures, blood samples were centrifuged at 14000 rpm for 16 minutes. After centrifuging, 50 ul of supernatant (plasma) from each sample was added to 200 μl of acetonitrile plus 0.1% formic acid. […] Samples were sonicated for 5 minutes in an ultrasonic water bath, followed by centrifugation for 30 minutes, at 16000 RPM. 100 ul of supernatant was removed from each sample vial and placed in a new glass auto sample vial, followed by the addition of 300 μl of sterile water (pH 6.5).

[4] = biological target: α5-containing GABAA R (Homo sapiens, UniProt P18507+P31644); settings: cited from earlier work
α5-containing GABAA R, sequence (P31644 32-462): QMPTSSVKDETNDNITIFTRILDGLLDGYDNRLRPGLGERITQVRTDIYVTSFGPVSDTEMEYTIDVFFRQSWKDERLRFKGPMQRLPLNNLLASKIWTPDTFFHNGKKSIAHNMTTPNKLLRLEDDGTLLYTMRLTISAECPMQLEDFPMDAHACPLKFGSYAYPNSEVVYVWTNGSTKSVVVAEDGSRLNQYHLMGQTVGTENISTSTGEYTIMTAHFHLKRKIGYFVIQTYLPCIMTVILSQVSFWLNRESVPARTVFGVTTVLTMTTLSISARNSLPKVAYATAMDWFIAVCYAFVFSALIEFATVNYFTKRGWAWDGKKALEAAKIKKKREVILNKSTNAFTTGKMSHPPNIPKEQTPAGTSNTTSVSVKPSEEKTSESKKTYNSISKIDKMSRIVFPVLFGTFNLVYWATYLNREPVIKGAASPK
α5-containing GABAA R, sequence (P28472 26-473 partner): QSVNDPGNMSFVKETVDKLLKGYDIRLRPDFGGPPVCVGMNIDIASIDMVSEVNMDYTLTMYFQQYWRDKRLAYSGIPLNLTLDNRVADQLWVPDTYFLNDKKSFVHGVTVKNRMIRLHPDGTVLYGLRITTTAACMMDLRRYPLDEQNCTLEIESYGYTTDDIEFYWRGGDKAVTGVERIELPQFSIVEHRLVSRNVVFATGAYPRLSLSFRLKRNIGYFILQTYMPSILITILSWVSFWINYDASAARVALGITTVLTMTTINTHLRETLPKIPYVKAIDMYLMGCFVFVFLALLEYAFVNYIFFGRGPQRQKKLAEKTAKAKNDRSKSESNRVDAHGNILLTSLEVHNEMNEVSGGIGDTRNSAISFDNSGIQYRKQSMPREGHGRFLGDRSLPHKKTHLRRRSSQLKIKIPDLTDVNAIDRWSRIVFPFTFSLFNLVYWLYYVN
α5-containing GABAA R, sequence (P18507 40-475): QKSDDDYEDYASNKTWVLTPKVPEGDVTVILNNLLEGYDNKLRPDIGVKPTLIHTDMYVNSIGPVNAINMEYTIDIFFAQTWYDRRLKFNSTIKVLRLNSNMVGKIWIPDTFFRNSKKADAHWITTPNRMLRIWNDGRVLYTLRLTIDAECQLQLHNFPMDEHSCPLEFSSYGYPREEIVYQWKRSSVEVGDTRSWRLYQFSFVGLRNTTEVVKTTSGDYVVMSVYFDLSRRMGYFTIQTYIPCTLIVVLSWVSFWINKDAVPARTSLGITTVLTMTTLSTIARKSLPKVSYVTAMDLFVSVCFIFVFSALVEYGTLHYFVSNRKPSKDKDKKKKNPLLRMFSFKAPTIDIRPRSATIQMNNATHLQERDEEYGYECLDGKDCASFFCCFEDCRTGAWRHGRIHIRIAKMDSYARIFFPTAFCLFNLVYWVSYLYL

T1 sequence (P19969 32-464 limits assumed): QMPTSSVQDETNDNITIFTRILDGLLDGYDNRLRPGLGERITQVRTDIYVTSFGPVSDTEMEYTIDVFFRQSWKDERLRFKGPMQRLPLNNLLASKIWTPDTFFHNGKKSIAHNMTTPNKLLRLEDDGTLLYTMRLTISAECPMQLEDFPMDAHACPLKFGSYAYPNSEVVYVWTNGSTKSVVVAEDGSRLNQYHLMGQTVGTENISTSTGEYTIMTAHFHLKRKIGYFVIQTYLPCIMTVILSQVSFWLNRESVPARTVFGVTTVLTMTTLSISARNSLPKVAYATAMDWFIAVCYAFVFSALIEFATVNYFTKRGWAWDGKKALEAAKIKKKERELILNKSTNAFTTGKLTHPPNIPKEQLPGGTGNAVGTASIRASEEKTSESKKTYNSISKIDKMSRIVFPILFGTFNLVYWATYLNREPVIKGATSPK
T1 sequence (P18508 39-466): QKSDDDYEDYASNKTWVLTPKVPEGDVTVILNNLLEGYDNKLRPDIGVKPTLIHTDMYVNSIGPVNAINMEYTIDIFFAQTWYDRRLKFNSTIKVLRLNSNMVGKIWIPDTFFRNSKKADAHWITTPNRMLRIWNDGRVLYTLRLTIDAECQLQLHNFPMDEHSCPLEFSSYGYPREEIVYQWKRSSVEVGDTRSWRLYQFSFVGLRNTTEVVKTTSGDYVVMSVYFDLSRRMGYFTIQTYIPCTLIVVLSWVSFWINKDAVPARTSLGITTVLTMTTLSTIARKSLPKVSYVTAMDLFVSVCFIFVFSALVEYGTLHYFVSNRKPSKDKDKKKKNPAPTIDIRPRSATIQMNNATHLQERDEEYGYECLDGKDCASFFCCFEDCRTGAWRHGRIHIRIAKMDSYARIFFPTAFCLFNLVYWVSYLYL

SMILES: COC(=O)c1c(-c2ccccc2)cnnc1-c1ccccc1 [methyl 3,5-diphenylpyridazine-4-carboxylate]
- memory performance relative to vehicle control ([1]; t(7)=4.233, p=0.004): significantly improved memory performance
- average no. of errors ± SEM in retention test ([1]; two-hour delay): 1.31±0.40
- effect on Ro 15-4513 binding in hippocampus ([2]; 0.01-10 mg/kg, i.v.): blocked the binding; also recorded: dose-dependently reduced
- effect on cerebellum levels of Ro 15-4513 ([2]; 0.01-10 mg/kg, i.v.): did not affect binding; also recorded: without affecting
- GABAA α5 receptors occupied at exposures behaviorally active in aged-impaired rats ([2]; hippocampus, FIG. 4): about 32%
- ED50 of receptor occupancy, ratio method ([2]; i.v.): 1.8 mg/kg
- GABAA α5 receptor occupancy, dose dependence ([2]; rat, in vivo): dose-dependent increase
- receptor occupancy at 10 mg/kg ([2]; rat, iv, 10 mg/kg): > 90%
- ED50 ([2]; rat, iv, read-out: ED50 of receptor occupancy, using L-755,608 to define occupancy): 1.1 mg/kg
- increase in hippocampal exposure ([3]; dose from 0.1 to 1 mg/kg): 12 fold
- increase in hippocampal exposure ([3]; dose from 1 to 10 mg/kg): ~5 fold
- increase in plasma exposure ([3]; dose from 1 to 10 mg/kg): 12 fold
- α5 in vitro efficacy (EC20) [4]: +27
